Experimental data as given in patent US7875645B2, “Method for the treatment of CNS disorders with substituted 2-imidazoles or imidazole derivatives” (Hoffman-La Roche Inc., priority 2006, dated 2011).
Where a name gives a salt, the structure may show the parent alone.

Target: T1, TAAR1 (Mus musculus, UniProt Q923Y8)
T1 construct: expressed in transfected cells; host or cells: HEK293 (ATCC # CRL-1573), stably transfected with pIRESneo2 expression plasmid; membranes prepared
T1 sequence (Q923Y8 whole entry): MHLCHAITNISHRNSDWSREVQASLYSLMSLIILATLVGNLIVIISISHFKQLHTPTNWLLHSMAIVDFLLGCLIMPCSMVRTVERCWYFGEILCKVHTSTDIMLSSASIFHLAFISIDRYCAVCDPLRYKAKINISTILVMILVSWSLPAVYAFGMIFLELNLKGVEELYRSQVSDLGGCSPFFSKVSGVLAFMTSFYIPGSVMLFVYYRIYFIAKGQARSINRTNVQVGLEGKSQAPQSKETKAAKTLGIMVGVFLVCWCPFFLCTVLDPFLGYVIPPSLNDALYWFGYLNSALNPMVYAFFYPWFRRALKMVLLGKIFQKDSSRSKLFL
Assay: Radioligand binding assay on membranes of HEK293 cells stably expressing TAAR1
Conditions: mouse TAAR1; radioligand [3H]-rac-2-(1,2,3,4-tetrahydro-1-naphthyl)-2-imidazoline at 60 nM; 4° C., 30 min
Method: For the construction of expression plasmids the coding sequences of human, rat and mouse TAAR 1 were amplified from genomic DNA essentially as described by Lindemann et al.. The Expand High Fidelity PCR System (Roche Diagnostics) was used with 1.5 mM Mg^2+ and purified PCR products were cloned into pCR2.1-TOPO cloning vector (Invitrogen) following the instructions of the manufacturer. PCR products were subcloned into the pIRESneo2 vector (BD Clontech, Palo Alto, Calif.), and expression vectors were sequence verified before introduction in cell lines.
For the generation of stably transfected cell lines HEK293 cells were transfected with the pIRESneo2 expression plasmids containing the TAAR coding sequences (described above) with Lipofectamine 2000 (Invitrogen) according to the instructions of the manufacturer, and 24 hrs post transfection the culture medium was supplemented with 1 mg/ml G418 (Sigma, Buchs, Switzerland). After a culture period of about 10 d clones were isolated, expanded and tested for responsiveness to trace amines (all compounds purchased from Sigma) with the cAMP Biotrak Enzyme immunoassay (EIA) System (Amersham) following the non-acetylation EIA procedure provided by the manufacturer.
Cells at confluence were rinsed with ice-cold phosphate buffered saline without Ca^2+ and Mg^2+ containing 10 mM EDTA and pelleted by centrifugation at 1000 rpm for 5 min at 4° C. The pellet was then washed twice with ice-cold phosphate buffered saline and cell pellet was frozen immediately by immersion in liquid nitrogen and stored until use at −80° C. Cell pellet was then suspended in 20 ml HEPES-NaOH (20 mM), pH 7.4 containing 10 mM EDTA, and homogenized with a Polytron (PT 3000, Kinematica) at 10,000 rpm for 10 s. The homogenate was centrifuged at 48,000×g for 30 min at 4° C. and the pellet resuspended in 20 ml HEPES-NaOH (20 mM), pH 7.4 containing 0.1 mM EDTA (buffer A), and homogenized with a Polytron at 10,000 rpm for 10 s. The homogenate was then centrifuged at 48,000×g for 30 min at 4° C. and the pellet resuspended in 20 ml buffer A, and homogenized with a Polytron at 10,000 rpm for 10 s. Protein concentration was determined by the method of Pierce (Rockford, Ill.). The homogenate was then centrifuged at 48,000×g for 10 min at 4° C., resuspended in HEPES-NaOH (20 mM), pH 7.0 including MgCl2 (10 mM) and […] homogenized with a Polytron at 10,000 rpm for 10 s.
Binding assay was performed at 4° C. in a final volume of 1 ml, and with an incubation time of 30 min. […] Non-specific binding was defined as the amount of [^3H]-rac-2-(1,2,3,4-tetrahydro-1-naphthyl)-2-imidazoline bound in the presence of the appropriate unlabelled ligand (10 μM). Competing ligands were tested in a wide range of concentrations (10 pM-30 μM). […] Each experiment was performed in duplicate. Al incubations were terminated by rapid filtration through UniFilter-96 plates (Packard Instrument Company) and glass filter GF/C, pre-soaked for at least 2 h in polyethylenimine 0.3%, and using a Filtermate 96 Cell Harvester (Packard Instrument Company). The tubes and filters were then washed 3 times with 1 ml aliquots of cold buffer B. Filters were not dried and soaked in Ultima gold (45 μl/well, Packard Instrument Company) and bound radioactivity was counted by a TopCount Microplate Scintillation Counter (Packard Instrument Company).
Compound `Brc1ccc(CC2=NCCN2)c2ccccc12` [Example 104, 2-(4-Bromo-naphthalen-1-ylmethyl)-4,5-dihydro-1H-imidazole] has a Ki of 0.008 µM.
Work on `COc1c(CC2=NCCN2)ccc2occc12` [Example 169, 2-(4-Methoxy-benzofuran-5-ylmethyl)-4,5-dihydro-1H-imidazole hydrochloride] yielded a Ki of 0.045 µM.
Compound `c1cc2ccc(CC3=NCCN3)cc2o1` [Example 170, 2-Benzofuran-6-ylmethyl-4,5-dihydro-1H-imidazole hydrochloride] has a Ki of 0.026 µM.
With `Oc1ccc2ccccc2c1CC1=NCCN1` [Example 172, 1-(4,5-Dihydro-1H-imidazol-2-ylmethyl)-naphthalen-2-ol hydrochloride] the Ki was 0.05 µM.
Work on `Brc1c(CC2=NCCN2)ccc2ccccc12` [Example 175, 2-(1-Bromo-naphthalen-2-ylmethyl)-4,5-dihydro-1H-imidazole] yielded a Ki of 0.011 µM.
Compound `Clc1cccc(I)c1CC1=NCCN1` [Example 187, 2-(2-Chloro-6-iodo-benzyl)-4,5-dihydro-1H-imidazole] has a Ki of 0.016 µM.
`CCc1ccc(Cl)c(CC)c1CC1=NCCN1` [Example 196, 2-(3-Chloro-2,6-diethyl-benzyl)-4,5-dihydro-1H-imidazole] gave a Ki of 0.023 µM.
Work on `CCc1c(Cl)ccc(F)c1CC1=NCCN1` [Example 198, 2-(3-Chloro-2-ethyl-6-fluoro-benzyl)-4,5-dihydro-1H-imidazole] yielded a Ki of 0.036 µM.
Compound `CCc1ccc(F)c(CC)c1Cc1ncc[nH]1` [Example 202, 2-(2,6-Diethyl-3-fluoro-benzyl)-1H-imidazole] has a Ki of 0.034 µM.
With `CCc1ccc(OC)c(CC)c1CC1=NCCN1` [Example 206, 2-(2,6-Diethyl-3-methoxy-benzyl)-4,5-dihydro-1H-imidazole] the Ki was 0.038 µM.
`CCc1cc(OC)cc(CC)c1Cc1ncc[nH]1` [Example 210, 2-(2,6-Diethyl-4-methoxy-benzyl)-1H-imidazole] showed a Ki of 0.048 µM.
Work on `CCOc1cc(CC)c(Cc2ncc[nH]2)c(CC)c1` [Example 215, 2-(4-Ethoxy-2,6-diethyl-benzyl)-1H-imidazole] yielded a Ki of 0.029 µM.
With `CCOc1ccc(CC)c(Cc2ncc[nH]2)c1CC` [Example 217, 2-(3-Ethoxy-2,6-diethyl-benzyl)-1H-imidazole] the Ki was 0.024 µM.
In the case of `CCc1ccc(OCc2ccccc2)c(CC)c1Cc1ncc[nH]1` [Example 218, 2-(3-Benzyloxy-2,6-diethyl-benzyl)-1H-imidazole], the Ki is reported as 0.047 µM.
Work on `CCc1cc(Oc2ccccc2)cc(CC)c1Cc1ncc[nH]1` [Example 219, 2-(2,6-Diethyl-4-phenoxy-benzyl)-1H-imidazole] yielded a Ki of 0.012 µM.
Compound `CCc1ccc(Oc2ccccc2)c(CC)c1Cc1ncc[nH]1` [Example 220, 2-(2,6-Diethyl-3-phenoxy-benzyl)-1H-imidazole] has a Ki of 0.013 µM.

System: not given
Assay: not given
Conditions: not given
Compound `Brc1ccc(CC2=NCCN2)c2ccccc12` [Example 104, 2-(4-Bromo-naphthalen-1-ylmethyl)-4,5-dihydro-1H-imidazole] has a melting point of 133 to 135 °C.
